Data reported in ChEMBL document CHEMBL6121044, “Discovery of Novel Spirocyclic MAT2A Inhibitors Demonstrating High In Vivo Efficacy in MTAP-Null Xenograft Models” (J Med Chem, 2025).
Converted amounts (≈) assume the structure as drawn.

Assays:
[1] = Plasma protein binding in rat assessed as unbound fraction; format: ADME, cell-free
[2] = Oral bioavailability in male Sprague-Dawley rat at 10 mg/kg measured upto 24 hrs upto 24 hrs by LC-MS/MS analysis; format: ADME, organism-based; conditions: in vivo
[3] = Microsomal metabolic stability in human liver microsomes assessed as half life; format: ADME, Microsome
[4] = Hepatic metabolic stability in mouse hepatocyte assessed as half life; format: ADME, cell-based; conditions: hepatocytes
[5] = Microsomal metabolic stability in dog liver microsomes assessed as half life; format: ADME, Canis lupus familiaris, Microsome
[6] = AUC (0 to infinity) in male ICR mouse at 10 mg/kg, po and 2 mg/kg, iv measured upto 24 hrs; format: ADME, organism-based; conditions: in vivo
[7] = Volume of distribution at steady state in male ICR mouse at 10 mg/kg, po and 2 mg/kg, iv measured upto 24 hrs; format: ADME, organism-based; conditions: in vivo
[8] = Microsomal metabolic stability in human liver microsomes assessed as clearance; format: ADME, Microsome; conditions: read-out: CLH
[9] = biological target: T1, S-adenosylmethionine synthase isoform type-2 (Homo sapiens, UniProt P31153); experiment: Inhibition of MAT2A in MTAP-knock out human HCT-116 cells assessed as inhibition of PRMT5-mediated symmetric […]-arginine (SDMA) level; format: cell-based
T1 sequence (P31153 whole entry, canonical isoform): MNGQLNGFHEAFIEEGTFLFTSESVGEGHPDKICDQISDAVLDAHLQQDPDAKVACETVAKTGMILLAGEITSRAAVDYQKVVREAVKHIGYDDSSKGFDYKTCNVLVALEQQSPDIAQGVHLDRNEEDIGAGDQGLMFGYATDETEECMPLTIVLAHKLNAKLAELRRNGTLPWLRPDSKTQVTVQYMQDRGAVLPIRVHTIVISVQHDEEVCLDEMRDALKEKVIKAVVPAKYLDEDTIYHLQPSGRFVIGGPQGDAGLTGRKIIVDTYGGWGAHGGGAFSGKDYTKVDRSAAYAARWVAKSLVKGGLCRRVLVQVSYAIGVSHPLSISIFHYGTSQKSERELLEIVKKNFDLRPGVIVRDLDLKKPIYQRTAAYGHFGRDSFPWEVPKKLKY

[10] = biological target: T1, S-adenosylmethionine synthase isoform type-2; experiment: Inhibition of MAT2A in MTAP-knock out human HCT-116 cells assessed as inhibition of S-adenosylmethionine level; format: cell-based
[11] = Half life in male ICR mouse at 10 mg/kg, po measured upto 24 hrs by LC-MS/MS analysis; format: ADME, organism-based; conditions: in vivo
[12] = Microsomal metabolic stability in mouse liver microsomes assessed as half life; format: ADME, Microsome
[13] = Microsomal metabolic stability in Cynomolgus monkey liver microsomes assessed as half life; format: ADME, Macaca fascicularis, Microsome
[14] = Hepatic metabolic stability in human hepatocyte assessed as half life; format: ADME, cell-based; conditions: hepatocytes
[15] = Efflux ratio of apparent permeability in human Caco-2 cells; format: ADME, cell-based
[16] = Plasma protein binding in cynomolgus monkey assessed as unbound fraction; format: ADME, cell-free, Macaca fascicularis
Cytochrome P450 2B6 = biological target: T2, Cytochrome P450 2B6 (Homo sapiens, UniProt P20813); experiment: Inhibition of CYP2B6 (unknown origin); format: ADME
T2 sequence (P20813 whole entry): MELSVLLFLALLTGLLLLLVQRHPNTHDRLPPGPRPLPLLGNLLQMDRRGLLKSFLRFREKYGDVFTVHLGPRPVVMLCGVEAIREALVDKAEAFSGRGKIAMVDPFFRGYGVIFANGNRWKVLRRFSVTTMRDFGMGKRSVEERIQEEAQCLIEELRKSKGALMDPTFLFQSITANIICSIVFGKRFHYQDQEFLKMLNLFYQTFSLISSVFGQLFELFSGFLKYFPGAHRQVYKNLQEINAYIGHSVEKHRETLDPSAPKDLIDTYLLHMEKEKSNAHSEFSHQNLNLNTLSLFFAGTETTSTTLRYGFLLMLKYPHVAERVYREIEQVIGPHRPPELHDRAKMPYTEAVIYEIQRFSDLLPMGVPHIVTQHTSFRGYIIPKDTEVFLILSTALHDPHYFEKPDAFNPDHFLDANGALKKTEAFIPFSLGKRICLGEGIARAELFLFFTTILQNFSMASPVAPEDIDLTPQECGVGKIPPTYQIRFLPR

[17] = biological target: Voltage-gated inwardly rectifying potassium channel KCNH2 (Homo sapiens, UniProt Q12809); experiment: Inhibition of hERG; format: toxicity
Voltage-gated inwardly rectifying potassium channel KCNH2, sequence (Q12809 whole entry): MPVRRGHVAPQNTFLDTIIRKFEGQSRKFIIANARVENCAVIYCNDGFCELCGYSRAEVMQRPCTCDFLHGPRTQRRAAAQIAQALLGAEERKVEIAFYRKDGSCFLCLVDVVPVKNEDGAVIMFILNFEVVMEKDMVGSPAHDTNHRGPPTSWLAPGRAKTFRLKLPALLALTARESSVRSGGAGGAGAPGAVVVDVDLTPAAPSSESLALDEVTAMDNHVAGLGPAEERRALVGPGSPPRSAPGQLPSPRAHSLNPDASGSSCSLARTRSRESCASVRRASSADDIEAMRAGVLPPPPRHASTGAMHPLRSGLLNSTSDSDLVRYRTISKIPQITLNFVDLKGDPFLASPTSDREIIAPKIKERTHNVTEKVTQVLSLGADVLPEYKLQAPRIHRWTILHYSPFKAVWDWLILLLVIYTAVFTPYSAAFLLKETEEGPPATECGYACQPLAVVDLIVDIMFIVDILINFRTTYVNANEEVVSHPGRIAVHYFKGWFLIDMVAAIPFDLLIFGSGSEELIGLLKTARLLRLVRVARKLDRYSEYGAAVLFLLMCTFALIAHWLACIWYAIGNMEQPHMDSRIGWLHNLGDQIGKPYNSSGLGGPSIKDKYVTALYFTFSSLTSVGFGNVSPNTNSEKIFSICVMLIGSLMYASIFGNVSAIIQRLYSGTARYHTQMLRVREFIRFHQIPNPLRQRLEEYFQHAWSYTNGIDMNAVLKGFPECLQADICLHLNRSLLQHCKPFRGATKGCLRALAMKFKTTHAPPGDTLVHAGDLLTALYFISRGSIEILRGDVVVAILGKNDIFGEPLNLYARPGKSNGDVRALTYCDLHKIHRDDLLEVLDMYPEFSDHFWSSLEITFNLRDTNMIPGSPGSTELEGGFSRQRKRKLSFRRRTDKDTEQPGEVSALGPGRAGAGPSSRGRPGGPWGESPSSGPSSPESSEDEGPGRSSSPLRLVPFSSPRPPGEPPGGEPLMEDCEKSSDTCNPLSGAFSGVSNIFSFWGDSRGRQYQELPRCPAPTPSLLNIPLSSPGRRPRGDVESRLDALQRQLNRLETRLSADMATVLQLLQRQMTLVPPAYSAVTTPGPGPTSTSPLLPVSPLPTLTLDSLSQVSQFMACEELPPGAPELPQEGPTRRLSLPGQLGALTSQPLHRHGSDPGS

[18] = Half life in male ICR mouse at 2 mg/kg, iv measured upto 24 hrs by LC-MS/MS analysis; format: ADME, organism-based; conditions: in vivo
[19] = AUCinf in male ICR mouse at 2 mg/kg, iv measured upto 24 hrs by LC-MS/MS analysis; format: ADME, organism-based; conditions: in vivo
[20] = AUCinf in male ICR mouse at 10 mg/kg, po measured upto 24 hrs by LC-MS/MS analysis; format: ADME, organism-based; conditions: in vivo
[21] = Genotoxicity in Salmonella typhimurium TA1535; format: toxicity; conditions: salmonella enterica subsp. enterica serovar typhimurium
[22] = Half life in beagle dog at 2 mg/kg, iv measured upto 24 hrs upto 24 hrs by LC-MS/MS analysis; format: ADME, organism-based, Canis lupus familiaris; conditions: in vivo
[23] = biological target: T1, S-adenosylmethionine synthase isoform type-2; experiment: Inhibition of MAT2A (unknown origin) assessed as release of inorganic phosphate using ATP/L-methionine pre-incubated for 30 mins followed by substrate addition measured after 2.5 hrs by colorimetric assay
[24] = Cmax in beagle dog at 10 mg/kg, po measured upto 24 hrs upto 24 hrs by LC-MS/MS analysis; format: ADME, organism-based, Canis lupus familiaris; conditions: in vivo
[25] = Half life in beagle dog at 10 mg/kg, po measured upto 24 hrs upto 24 hrs by LC-MS/MS analysis; format: ADME, organism-based, Canis lupus familiaris; conditions: in vivo
[26] = biological target: T3, UDP-glucuronosyltransferase 1A1 (Homo sapiens, UniProt P22309); experiment: Inhibition of UGT1A1 (unknown origin)
T3 sequence (P22309 whole entry): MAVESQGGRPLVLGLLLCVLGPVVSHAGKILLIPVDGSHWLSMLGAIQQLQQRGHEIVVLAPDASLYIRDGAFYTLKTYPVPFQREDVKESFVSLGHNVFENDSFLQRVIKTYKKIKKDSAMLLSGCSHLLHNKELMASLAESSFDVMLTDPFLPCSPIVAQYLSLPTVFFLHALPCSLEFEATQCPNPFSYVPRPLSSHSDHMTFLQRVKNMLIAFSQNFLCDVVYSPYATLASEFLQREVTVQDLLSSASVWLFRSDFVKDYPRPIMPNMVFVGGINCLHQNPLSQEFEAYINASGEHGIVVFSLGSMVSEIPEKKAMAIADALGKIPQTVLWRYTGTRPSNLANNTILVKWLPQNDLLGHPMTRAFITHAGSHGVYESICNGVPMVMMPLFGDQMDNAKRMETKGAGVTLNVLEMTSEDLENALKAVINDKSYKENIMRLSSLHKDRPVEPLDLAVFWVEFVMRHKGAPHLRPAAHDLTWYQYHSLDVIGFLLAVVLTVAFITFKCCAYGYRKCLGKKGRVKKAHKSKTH

[27] = Solubility of the compound in FaSSIF; format: physicochemical
Cytochrome P450 3A4 = Cytochrome P450 3A4 (Homo sapiens, UniProt P08684); experiment: Inhibition of CYP3A4 (unknown origin); format: ADME
Cytochrome P450 3A4, sequence (P08684 whole entry): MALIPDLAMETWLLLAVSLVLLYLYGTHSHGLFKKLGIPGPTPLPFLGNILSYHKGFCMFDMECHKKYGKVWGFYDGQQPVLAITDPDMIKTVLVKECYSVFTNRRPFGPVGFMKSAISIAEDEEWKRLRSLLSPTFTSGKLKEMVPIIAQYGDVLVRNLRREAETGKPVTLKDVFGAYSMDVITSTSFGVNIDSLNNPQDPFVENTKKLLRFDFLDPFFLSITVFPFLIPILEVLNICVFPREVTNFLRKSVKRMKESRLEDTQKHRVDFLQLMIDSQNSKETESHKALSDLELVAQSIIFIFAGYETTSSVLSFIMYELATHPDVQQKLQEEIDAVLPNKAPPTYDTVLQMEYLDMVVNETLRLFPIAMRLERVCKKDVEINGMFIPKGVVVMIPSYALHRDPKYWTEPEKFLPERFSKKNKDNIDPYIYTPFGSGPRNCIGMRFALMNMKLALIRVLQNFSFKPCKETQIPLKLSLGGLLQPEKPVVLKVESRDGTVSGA

[28] = Genotoxicity in Salmonella typhimurium TA97a; format: toxicity; conditions: salmonella enterica subsp. enterica serovar typhimurium
[29] = Solubility of the compound in pH 7.4 phosphate buffer; format: physicochemical
[30] = Cmax in male Sprague-Dawley rat at 10 mg/kg, po measured upto 24 hrs upto 24 hrs by LC-MS/MS analysis; format: ADME, organism-based; conditions: in vivo
[31] = AUCinf in male Sprague-Dawley rat at 2 mg/kg, iv measured upto 24 hrs upto 24 hrs by LC-MS/MS analysis; format: ADME, organism-based; conditions: in vivo
[32] = Dissociation constant, pKa of compound; format: physicochemical
[33] = Oral bioavailability in male ICR mouse at 10 mg/kg measured upto 24 hrs by LC-MS/MS analysis; format: ADME, organism-based; conditions: in vivo
[34] = Solubility of the compound in FaSSGF; format: physicochemical
[35] = Volume of distribution at steady state in beagle dog at 2 mg/kg, iv measured upto 24 hrs upto 24 hrs by LC-MS/MS analysis; format: ADME, organism-based, Canis lupus familiaris; conditions: in vivo, read-out: Vdss
[36] = Clearance rate in beagle dog at 2 mg/kg, iv measured upto 24 hrs upto 24 hrs by LC-MS/MS analysis; format: ADME, organism-based, Canis lupus familiaris; conditions: in vivo

## [2H]C([2H])([2H])NC1=NC(=O)[C@]2(CCc3ncccc32)c2cc(C(C)(F)F)ccc21
[1]
  fraction unbound: 0.373
[2]; male, Sprague-Dawley
  bioavailability: 135%
[3]
  half-life: > 3.1 h
[4]
  half-life: > 3.61 h
[5]
  half-life: > 3.1 h
[6]
  AUC(0-inf): 24900 ng·h/mL
[7]
  Vdss: 1.53 L/kg
[8]
  CLint scaled: < 9.3 mL/min/kg
[9]
  IC50: 2 nM
[10]
  IC50: 4 nM
[11]
  half-life: 2.37 h
[12]
  half-life: > 2.46 h
[13]
  half-life: > 3.1 h
[14]
  half-life: > 3.61 h
[15]
  efflux ratio: 5.27
[16]
  fraction unbound: 0.519
Cytochrome P450 2B6
  IC50: > 10000 nM
[17]
  IC50: > 40000 nM
[18]
  half-life: 1.94 h
[19]
  AUC(0-inf): 3660 ng·h/mL
[20]
  AUC(0-inf): 24900 ng·h/mL
[21]
  Activity: Non-toxic
[22]
  half-life: 6.56 h
[23]
  IC50: 4 nM
[24]
  Cmax: 2140 ng/mL
[25]
  half-life: 4.47 h
[26]
  IC50: > 50000 nM
[27]
  solubility: 208 µM (≈ 71.6 µg/mL)
Cytochrome P450 3A4
  IC50: > 10000 nM
[28]
  Activity: Non-toxic
[29]
  solubility: 174 µM (≈ 59.9 µg/mL)
[30]
  Cmax: 6100 ng/mL
[31]; iv, 2 mg/kg, 24 h
  AUC: 2212 ng·h/mL
[32]
  pKa: 4.9
[33]
  bioavailability: 132%
[34]
  solubility: 79.9 µM (≈ 27.5 µg/mL)
[35]
  Vd: 1.14 L/kg
[36]
  clearance: 15.3 mL/min/kg

## [2H]C([2H])([2H])NC1=NC(=O)[C@]2(CCc3ncccc32)c2cc(C(F)(F)F)ccc21
[1]
  fraction unbound: 0.412
[2]; po, 10 mg/kg, 24 h
  F: 171%
[3]
  half-life: > 3.1 h
[4]
  half-life: > 3.61 h
[5]
  half-life: > 3.1 h
[6]
  AUC(0-inf): 39600 ng·h/mL
[7]
  Vdss: 1.7 L/kg
[8]
  CLint scaled: < 9.3 mL/min/kg
[9]
  IC50: 1 nM
[10]
  IC50: 4 nM
[11]
  half-life: 2.19 h
[12]
  half-life: > 3.1 h
[13]
  half-life: > 3.1 h
[14]
  half-life: > 3.61 h
[15]
  efflux ratio: 1.95
[16]
  fraction unbound: 0.562
Cytochrome P450 2B6
  IC50: > 10000 nM
[17]
  IC50: > 40000 nM
[18]
  half-life: 2.52 h
[19]
  AUC(0-inf): 4190 ng·h/mL
[20]
  AUC(0-inf): 35800 ng·h/mL
[21]
  Activity: Non-toxic
[22]
  half-life: 6.91 h
[23]
  IC50: 4 nM
[24]
  Cmax: 1660 ng/mL
[25]
  half-life: 6.09 h
[26]
  IC50: > 50000 nM
[27]
  solubility: 207 µM (≈ 72.1 µg/mL)
Cytochrome P450 3A4
  IC50: > 10000 nM
[28]
  Activity: Non-toxic
[29]
  solubility: 173 µM (≈ 60.3 µg/mL)
[30]
  Cmax: 8520 ng/mL
[31]; male, Sprague-Dawley
  AUC(0-inf): 4990 ng·h/mL
[32]
  pKa: 4.7
[33]
  bioavailability: 97%
[34]
  solubility: 30.9 µM (≈ 10.8 µg/mL)
[35]
  Vd: 1.14 L/kg
[36]
  clearance: 6.95 mL/min/kg
